Reference: patent US12551581B2, “Combination cancer immunotherapy with pentaaza macrocyclic ring complex” (Galera Labs, LLC, priority 2017, dated 2026)
Where two headings read alike, the source gives them in different places.

Experiments:
[1] = hamster oral mucositis; Murphy et al. 2008; cited from earlier work
[2] = rat model; Salvemini et al. 1999; cited from earlier work
[3] = rats, experimental colitis; Cuzzocrea et al. 2001; cited from earlier work
[4] = rat collagen-induced arthritis; Salvemini et al. 2001; cited from earlier work
[5] = lethal total body irradiation, adult mice; Thompson et al. 2010; cited from earlier work
[6] = tested on: Colon 26 mouse colon cancer cell line tumors; experiment: Colon 26 syngeneic tumor model, GC4419 with anti-PD1; assay type: in vivo, Balb/C mice; details: 1 and 3 mg/kg bid ip GC4419 added to anti-PD1 5 mg/kg; versus anti-PD1 alone
Protocol: GC4419 was administered in combination with the T-cell checkpoint inhibitor anti-PD-1 (RMP1-14) to female Balb/C mice implanted with the mouse colon cancer cell line, Colon 26 beginning on day 3 post-implantation. Tumors were allowed to grow for up to 52 days or until they exceeded 1000 mm3.
Treatments with the antibody and GC4419 are described in Table 1.
Tumor volumes were assessed and median and mean values are shown in FIG. 1 (Median Tumor Volumes in Colon 26 Model) and 2 (Mean Tumor Volumes in Colon 26 Model).

[7] = tested on: 4T1 mouse breast cancer tumors; experiment: 4T1 syngeneic model, GC4419 with anti-CTLA-4, delayed/skip dosing (Example 6); assay type: in vivo, Balb/C mice
Protocol: GC4419 was administered in combination with the T-cell checkpoint inhibitor anti-CTLA-4 (9D9) to female Balb/C mice implanted subcutaneously with the mouse breast cancer cell line, 4T1. Tumors were allowed to grow for up to 35 days or until they exceeded 3000 mm^3 (or Group mean of 2000 mm^3).
Treatments with the antibody and GC4419 are described in Table 8.
Tumor volumes were assessed and mean values are shown in FIGS. 5C and 5D (Mean Tumor Volumes in 4T1 Model).

LLC tumors = experiment: LLC abscopal study, GC4419 with radiation and anti-CTLA4, primary and secondary tumors; assay type: in vivo, C57Bl/6 mice
Protocol: Syngeneic animals (C57Bl/6 mice) were subcutaneously implanted with LLC cells in the right flank to form a xenograft (primary tumor). On day 2, the same animals were subcutaneously implanted with LLC cells in the left flank for form another xenograft (secondary tumor). On day 8, some animals began treatment with anti CTLA-4 antibodies (200 μg) as indicated below. On day 11, when both primary and secondary tumors were palpable, all animals were treated with GC4419 (24 mg/kg), 15 Gy of 250 kVp X-rays, and/or anti CTLA-4 antibodies (10 mg/kg), as described in Table 10 below. Tumor growth was tracked as a function of time for both primary and secondary tumors.

4T1 tumors [8] = experiment: 4T1 tumor volume with GC4419 and/or radiation in immunodeficient mice; assay type: in vivo; details: nu/nu mice
Protocol: (§1) In separate studies, either syngeneic Balb/c mice or immunodeficient nu/nu mice were subcutaneously implanted with 4T1 cells to form a xenograft. On day 11 after transplant, animals were treated with GC4419 (24 mg/kg) and/or 15 Gy of 250 kVp X-rays, as described in Table 5 below.
(§2) Tumor volume was tracked as a function of time, and Day 17 (the last common day of measurement between the two studies given the rapid growth of tumors in the nu/nu mice) mean tumor volumes are described in Table 6 below.

4T1 tumors [9] = experiment: 4T1 tumor volume with GC4419 and/or radiation in immunocompetent mice; assay type: in vivo, Balb/c mice
Protocol: as §1, §2

[10] = head-and-neck cancer patients undergoing chemoradiation therapy; Anderson 2015; cited from earlier work
[11] = tested on: 4T1 mouse breast cancer tumors; experiment: 4T1 syngeneic tumor model, GC4419 with anti-CTLA-4, start day varied (Example 5); assay type: in vivo, Balb/C mice
Protocol: GC4419 was administered in combination with the T-cell checkpoint inhibitor anti-CTLA-4 (9D9) to female Balb/C mice implanted subcutaneously with the mouse breast cancer cell line, 4T1. Tumors were allowed to grow for up to 45 days or until they exceeded 3000 mm^3 (or Group mean of 2000 mm^3).
Treatments with the antibody and GC4419 are described in Table 7.
Tumor volumes were assessed and mean values are shown in FIG. 5A (Mean Tumor Volumes in 4T1 Model).
FIG. 5B depicts such an improvement occurring for dosing of GC4419 that is delayed until day 13 after a start of anti-CTLA4 administration (i.e., after the 5th dose of anti-CTLA4). In comparison of arms treated with (a) combination of GC4419 with anti-CTLA4 treatment and (b) anti-CTLA4 treatment alone, no difference should be apparent between the two arms before addition of GC4419 treatment. As a result tumor control was assessed by normalizing the tumor growth curves of each arm with respect to the day on which treatment with GC4419 was started in the combination arm (i.e., day 13 in FIG. 5B).

[12] = tested on: 4T1 tumors and lung metastases; experiment: 4T1 metastatic breast cancer model, GC4419 with radiation and anti-CTLA4; assay type: in vivo, mice (syngeneic)
Protocol: Specifically, as shown in FIGS. 4A-4C, GC4419 decreases metastasis and enhances the efficacy of the combination of radiation and T-cell checkpoint inhibitor anti-CTLA4 (9D9) in the 4T1 metastatic breast cancer model. Syngeneic animals were subcutaneously implanted with 4T1 cells to form a xenograft. On day 12, when no lung metastasis is present, animals were treated with GC4419 (24 mg/kg), 15 Gy of 250 kVp X-rays, and/or anti CTLA-4 antibodies (10 mg/kg) or IgG control antibodies, as described in Table 3 below. Tumor growth was tracked as a function of time and at day 35 post implantation ([…]), animals were euthanized and lungs collected to count metastases.

[13] = tested on: Lewis lung carcinoma (LLC) tumors; experiment: Lewis lung carcinoma tumors, GC4419 plus ionizing radiation; assay type: in vivo, C57.CL/6 mice
Protocol: The effects of GC4419 plus IR on intratumoral levels of key immune cell populations were tested in Lewis lung carcinoma (LLC) tumors. In the study, 4 week old C57.CL/6 mice were injected with LLC cells to form tumors. At 13 days post-injection, animals were treated with GC4419 at doses of 3, 10 and 24 mg/kg and 15 Gy of 250 kVp X-rays. Tumor growth was tracked until tumor size exceeded 2 cm in any one direction. In addition, tumor infiltrating lymphocyte populations were assessed in separate animals via flow cytometry at various time points post IR (15 Gy) in combination with 10 mg/kg GC4419 treatment. Intratumoral populations of neutrophils, macrophages and activated cytotoxic T-cells were altered due to the presence of GC4419 either with or without ionizing radiation, as shown in FIG. 6B. However, it is unclear from this study alone whether these transient alterations in the immune cell populations caused by GC4419 contribute to improved results for the combination of GC4419 with checkpoint inhibitor therapy combined or in the absence of radiation therapy.

[14] = rat model; Tuder et al. 2003; cited from earlier work

[Cl-].[Cl-].[Mn+2].c1cc2nc(c1)CN[C@@H]1CCCC[C@H]1NCCN[C@@H]1CCCC[C@H]1NC2 [GC4403]
radiation damage [1]: attenuate the radiation damage
inflammation [2]: inhibit inflammation
injury to the colon [3]: very significantly reduce the injury to the colon
joint disease [4]: prevent joint disease
radiation damage [5]: attenuate the radiation damage

[Cl][Mn][Cl].c1cc2nc(c1)CN[C@H]1CCCC[C@@H]1NCCN[C@H]1CCCC[C@@H]1NC2 [GC4419]
tumor growth [6]: further decrease
tumor volumes ([7]; 3 mg/kg or 10 mg/kg GC4419 added to anti-CTLA4, started at least 3 days after antibody): significant further decrease in tumor volumes
tumor volume (FIG. 5D) ([7]; GC4419 10 mg/kg versus 3 mg/kg, with anti-CTLA4): improved results over a dose of 3 mg/kg
tumor volume (FIG. 5C) ([7]; skipping GC4419 on days when anti-CTLA4 was administered): further improved the results, albeit slightly
sensitization of primary and secondary tumors to radiation (growth delay) (LLC tumors; GC4419 D11-15 with 15 Gy RT D11 to primary tumor): sensitized primary and secondary tumors to radiation
growth of secondary tumors (FIG. 8E) (LLC tumors; GC4419 added to anti CTLA-4 therapy and radiation therapy): slowed the growth of secondary tumors
sensitization of primary tumors to combination of anti CTLA-4 therapy and radiation therapy (LLC tumors; GC4419 added to anti-CTLA4 200 μg + 15 Gy RT): sensitized
Day 17 Tumor Volume, V (4T1 tumors [8]; mean, GC4419 24 mg/kg D11-15, RT 15 Gy D11): All sac'd at Day 13
tumor growth (4T1 tumors [8]; radiation plus GC4419 versus radiation alone): further tumor growth reduction
V(x) / V(Group 3) (4T1 tumors [9]; Balb/c mice, Day 17 volume relative to RT alone group): 1.25
Day 17 Tumor Volume, V (4T1 tumors [9]; Balb/c mice, mean, GC4419 24 mg/kg D11-15, RT 15 Gy D11): 1923 mm^3
tumor growth (4T1 tumors [9]; Balb/c mice, radiation plus GC4419 versus radiation alone): further tumor growth reduction
increase in response to combined radiation and GC4419 treatment (4T1 tumors [9]; Balb/c versus nu/nu mice): greater in immunocompetent mice than in immunodeficient mice
oral mucositis [10]: reduce oral mucositis
tumor growth ([11]; 3 mg/kg GC4419 QD x 21 added, started at least 3 days after antibody treatment): further decrease
normalized tumor growth (FIG. 5B) ([11]; GC4419 start delayed until day 13 after start of anti-CTLA4, versus anti-CTLA4 alone): reduced tumor growth
sensitization of tumors to radiation (tumor volume, FIG. 4A) ([12]; GC4419 24 mg/kg D12-16 with 15 Gy RT D12): sensitized 4T1 tumors to radiation regardless of GC4419 dose
efficacy of combination anti CTLA-4 therapy and radiation therapy (tumor volume, FIG. 4B) ([12]; GC4419 24 mg/kg added to anti-CTLA4 10 mg/kg + 15 Gy RT): enhanced the efficacy of combination anti CTLA-4 therapy and radiation therapy
number of surface lung metastases (FIG. 4C) ([12]; day 35 post implantation): significantly decreased the number of metastases
% Mice without Lung Metastases ([12]; day 35 post implantation, GC4419 24 mg/kg, RT 15 Gy, anti-CTLA4 10 mg/kg): 0%
intratumoral populations of neutrophils, macrophages and activated cytotoxic T-cells ([13]; 10 mg/kg GC4419 with or without IR 15 Gy, flow cytometry, various time points): altered
sensitization of tumors to ionizing radiation (FIG. 6A) ([13]; GC4419 3, 10 and 24 mg/kg with 15 Gy): sensitized tumors to ionizing radiation regardless of dose
VEGFr inhibitor-induced pulmonary disease [14]: attenuate VEGFr inhibitor-induced pulmonary disease
